The values below come from patent US9499551B2, “Substituted pyrrolo[2,3-b]pyridines for treating cancer or inflammatory diseases” (Confluence Life Sciences, Inc., priority 2014, dated 2016).

The structures appear in SMILES notation. Some results are limits rather than exact numbers.

One may read the IC50 as the midpoint of a concentration-inhibition curve.

The assay concerns the target T1, TAK1-TAB1 (Homo sapiens, UniProt O43318).
T1 sequence (O43318 with tags, fused parts or gaps limits assumed): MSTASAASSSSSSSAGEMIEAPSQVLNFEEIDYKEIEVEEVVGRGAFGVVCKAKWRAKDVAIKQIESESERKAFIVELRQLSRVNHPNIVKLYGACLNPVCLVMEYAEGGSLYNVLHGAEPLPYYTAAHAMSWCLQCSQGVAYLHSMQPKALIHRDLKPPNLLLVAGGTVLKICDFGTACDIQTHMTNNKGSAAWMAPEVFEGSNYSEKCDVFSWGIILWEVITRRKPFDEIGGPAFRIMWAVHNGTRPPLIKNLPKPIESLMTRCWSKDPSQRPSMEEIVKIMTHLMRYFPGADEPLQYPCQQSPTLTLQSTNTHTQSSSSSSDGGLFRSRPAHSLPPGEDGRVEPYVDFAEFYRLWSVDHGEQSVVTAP
Description: TAK1-TAB1 binding inhibitory potency (LanthaScreen competitive binding assay, kinase tracer-236). Conditions: 10 nM TAK1-TAB1, 100 nM kinase tracer-236; read-out: TAK1-Tab Inhibition IC50. An excerpt:
TAK1-TAB1 Binding Inhibitory Potency:
The ability of candidate compounds to interact with TAK1-TAB1 is quantitated by a competitive binding assay using the LanthaScreen technology developed by Life Technologies. This assay is based on the binding of a proprietary, Alexa Fluor® 647-labeled, ATP-competitive kinase inhibitor (kinase tracer-236) to the TAK1-TAB1 construct in presence of a europium-conjugated antibody, resulting in a FRET (fluorescence resonance energy transfer) signal. Displacement of the kinase tracer by compound results in a lower emission ratio upon excitation of the europium chelate. Candidate compounds are designed as potential irreversible inhibitors of TAK1-TAB1, capable of ligating to an active site cysteine residue. The time dependent nature of irreversible inhibition is investigated by performing the binding assay with and without a pre-incubation of compound and TAK1-TAB1.
The inhibitory potency of candidate compounds is measured in 20 mM HEPES pH 7.5, 10 mM MgCl2, 0.01% BSA, 0.0005% Tween-20, and 2% DMSO in the presence of 10 nM TAK1-TAB1, 2 nM Eu-anti-his antibody, and 100 nM kinase tracer-236 using a 384-well plate format. Background signal is defined in the absence of TAK1-TAB1 and uninhibited signal is defined in the presence of vehicle (2% DMSO) alone. Compounds were evaluated in an 11 point dose-response ranging from 20 μM to 0.34 nM. The binding assays are performed under two conditions to evaluate time dependence of inhibition. For the pre-incubation assay, TAK1-TAB1 and Eu-anti-his antibody are preincubated with compound or vehicle for two hours prior to the addition of kinase tracer. The non-preincubated assay is run in which TAK1-TAB1 and Eu-anti-his antibody are added to a mixture of compound and kinase tracer. IC50 values of compounds are determined using a 4 parameter logistical fit of emission ratio as a function of the concentration of compound. […]
Turning to `CC(=O)c1cncc(-c2cnc3[nH]cc(/C=C/C(N)=O)c3c2)c1` [Example 304, (E)-3-(5-(5-acetylpyridin-3-yl)-1H-pyrrolo[2,3-b]pyridin-3-yl)acrylamide], the IC50 is no more than 1000 nM. Under `NC(=O)/C=C/c1c[nH]c2ncc(-c3ccc(Oc4ccc(F)cc4)cc3)cc12` [Example 344, (E)-3-(5-(4-(4-fluorophenoxy)phenyl)-1H-pyrrolo[2,3-b]pyridin-3-yl)acrylamide] stands no more than 1000 nM; under `CCC(=O)c1ccc(-c2cnc3[nH]cc(/C=C/C(N)=O)c3n2)c(C)c1` [Example 314, (E)-3-(2-(2-methyl-4-propionylphenyl)-5H-pyrrolo[2,3-b]pyrazin-7-yl)acrylamide], no more than 1000 nM; under `NC(=O)/C=C/c1c[nH]c2ncc(C(=O)c3ccccc3)cc12` [Example 338, (E)-3-(5-benzoyl-1H-pyrrolo[2,3-b]pyridin-3-yl)acrylamide], no more than 1000 nM.

Take `C#CC(=O)Nc1c[nH]c2ncc(-c3ccccc3)cc12` [Example 238, N-(5-phenyl-1H-pyrrolo[2,3-b]pyridin-3-yl)propiolamide]: the IC50 was greater than 1000 nM. In the case of `NC(=O)/C=C/c1c[nH]c2ncc(-c3ccc(C(=O)c4cc(F)cc(F)c4)cc3)cc12` [Example 362, (E)-3-(5-(4-(3,5-difluorobenzoyl)phenyl)-1H-pyrrolo[2,3-b]pyridin-3-yl)acrylamide] it was no more than 1000 nM. In the case of `NC(=O)/C=C/c1c[nH]c2ncc(-c3cccnc3)nc12` [Example 255, (E)-3-(2-(pyridin-3-yl)-5H-pyrrolo[2,3-b]pyrazin-7-yl)acrylamide] it was greater than 1000 nM; in that of `O=C(/C=C/CO)Nc1c[nH]c2ncc(-c3ccccc3)cc12` [Example 239, (E)-4-hydroxy-N-(5-phenyl-1H-pyrrolo[2,3-b]pyridin-3-yl)but-2-enamide], no more than 1000 nM. As for `NC(=O)/C=C/c1c[nH]c2ncc(-c3ccc4c(c3)CCC4=O)nc12` [Example 343, (E)-3-(2-(1-oxo-2,3-dihydro-1H-inden-5-yl)-5H-pyrrolo[2,3-b]pyrazin-7-yl)acrylamide], the IC50 is no more than 1000 nM. Under `NC(=O)/C=C/c1c[nH]c2ncc(-c3ccc(OCC4CC4)nc3)cc12` [Example 327, (E)-3-(5-(6-(cyclopropyl-methoxy)pyridin-3-yl)-1H-pyrrolo[2,3-b]pyridin-3-yl)acrylamide] stands no more than 1000 nM. Take `N#CC(C#N)=Cc1c[nH]c2ncc(-c3ccccc3)cc12` [Example 242, 2-((5-phenyl-1H-pyrrolo[2,3-b]pyridin-3-yl)methylene) malononitrile]: the IC50 is greater than 1000 nM.

Turning to `NC(=O)/C=C/c1c[nH]c2ncc(-c3cc(Cl)cc(C(F)(F)F)c3)cc12` [Example 347, (E)-3-(5-(3-chloro-5-(trifluoromethyl)phenyl)-1H-pyrrolo[2,3-b]pyridin-3-yl)acrylamide], the IC50 was no more than 1000 nM. In the case of `NC(=O)/C=C/c1c[nH]c2ncc(N3CCN(C(=O)c4ccc(F)cc4F)CC3)cc12` [Example 332, (E)-3-(5-(4-(2,4-difluorobenzoyl)piperazin-1-yl)-1H-pyrrolo[2,3-b]pyridin-3-yl)acrylamide], the IC50 is no more than 1000 nM.

For the compound `CC(C)(O)c1ccc(-c2cnc3[nH]cc(/C=C(\C#N)C(N)=O)c3c2)cc1` [Example 360, (E)-2-cyano-3-(5-(4-(2-hydroxypropan-2-yl)phenyl)-1H-pyrrolo[2,3-b]pyridin-3-yl)acrylamide], the IC50 was no more than 1000 nM. Under `CC(=O)c1ccc(-c2cnc3[nH]cc(/C=C/C(N)=O)c3c2)cn1` [Example 303, (E)-3-(5-(6-acetylpyridin-3-yl)-1H-pyrrolo[2,3-b]pyridin-3-yl)acrylamide] stands no more than 1000 nM. Take `NC(=O)/C=C/c1c[nH]c2ncc(-c3ccc(N4CCCCC4)nc3)nc12` [Example 320, (E)-3-(2-(6-(piperidin-1-yl)pyridin-3-yl)-5H-pyrrolo[2,3-b]pyrazin-7-yl)acrylamide]: the IC50 was no more than 1000 nM.

For `CC(C)(O)c1ccc(-c2cnc3[nH]cc(/C=C/C(N)=O)c3n2)cn1` [Example 305, (E)-3-(2-(6-(2-hydroxypropan-2-yl)pyridin-3-yl)-5H-pyrrolo[2,3-b]pyrazin-7-yl)acrylamide], the IC50 is no more than 1000 nM. Take `CN(C)C/C=C/C(=O)Nc1c[nH]c2ncc(-c3ccccc3)cc12` [Example 241, (E)-4-(dimethylamino)-N-(5-phenyl-1H-pyrrolo[2,3-b]pyridin-3-yl)but-2-enamide]: the IC50 is greater than 1000 nM.

As for `CCC(C)(O)c1ccc(-c2cnc3[nH]cc(/C=C/C(N)=O)c3c2)cc1` (stereo not drawn) [Example 310, (E)-3-(5-(4-(2-hydroxybutan-2-yl)phenyl)-1H-pyrrolo[2,3-b]pyridin-3-yl)acrylamide], the IC50 is no more than 1000 nM. Consider `Cc1cc(-c2cnc3[nH]cc(/C=C/C(N)=O)c3c2)cc(C(F)(F)F)c1` [Example 348, (E)-3-(5-(3-methyl-5-(trifluoromethyl)phenyl)-1H-pyrrolo[2,3-b]pyridin-3-yl)acrylamide], for which the IC50 was no more than 1000 nM. As to `CC(=O)c1cccc(-c2cnc3[nH]cc(/C=C/C(N)=O)c3n2)c1` [Example 306, (E)-3-(2-(3-acetylphenyl)-5H-pyrrolo[2,3-b]pyrazin-7-yl)acrylamide], the IC50 is no more than 1000 nM. Under `Cc1nc(C(=O)N(C)C)ccc1-c1cnc2[nH]cc(/C=C/C(N)=O)c2c1` [Example 351, (E)-5-(3-(3-amino-3-oxoprop-1-en-1-yl)-1H-pyrrolo[2,3-b]pyridin-5-yl)-N,N,6-trimethyl-picolinamide] stands no more than 1000 nM; under `C/C=C/C(=O)Nc1c[nH]c2ncc(-c3ccccc3)cc12` [Example 235, (E)-N-(5-phenyl-1H-pyrrolo[2,3-b]pyridin-3-yl)but-2-enamide], greater than 1000 nM. In the case of `CC(C)c1ccc(C(=O)N2CCN(c3cnc4[nH]cc(/C=C/C(N)=O)c4c3)CC2)cc1` [Example 335, (E)-3-(5-(4-(4-isopropylbenzoyl)piperazin-1-yl)-1H-pyrrolo[2,3-b]pyridin-3-yl)acrylamide] it was no more than 1000 nM; in that of `NC(=O)/C=C/c1c[nH]c2ncc(-c3ccc(C(=O)C(F)(F)F)cc3)cc12` [Example 319, (E)-3-(5-(4-(2,2,2-trifluoroacetyl)phenyl)-1H-pyrrolo[2,3-b]pyridin-3-yl)acrylamide], no more than 1000 nM.

As for `NC(=O)/C=C/c1c[nH]c2ncc(-c3cc(C(F)(F)F)cc(C(F)(F)F)c3)nc12` [Example 316, (E)-3-(2-(3,5-bis(trifluoromethyl)phenyl)-5H-pyrrolo[2,3-b]pyrazin-7-yl)acrylamide], the IC50 was no more than 1000 nM.

With `CN1CCC(C(=O)c2ccc(-c3cnc4[nH]cc(/C=C/C(N)=O)c4c3)cc2)CC1` [Example 334, (E)-3-(5-(4-(1-methylpiperidine-4-carbonyl)phenyl)-1H-pyrrolo[2,3-b]pyridin-3-yl)acrylamide], the IC50 was no more than 1000 nM. In the case of `CC(C)(O)c1cccc(-c2cnc3[nH]cc(C=C(C(N)=O)C(N)=O)c3c2)c1` [Example 365, 2-((5-(3-(2-hydroxypropan-2-yl)phenyl)-1H-pyrrolo[2,3-b]pyridin-3-yl)methylene) malonamide] it was no more than 1000 nM; in that of `CON(C)C(=O)c1ccc(-c2cnc3[nH]cc(/C=C/C(N)=O)c3c2)cc1` [Example 329, (E)-4-(3-(3-amino-3-oxoprop-1-en-1-yl)-1H-pyrrolo[2,3-b]pyridin-5-yl)-N-methoxy-N-methyl-benzamide], no more than 1000 nM; in that of `NC(=O)/C=C/c1c[nH]c2ncc(C(=O)c3ccc(F)cc3)cc12` [Example 353, (E)-3-(5-(4-fluorobenzoyl)-1H-pyrrolo[2,3-b]pyridin-3-yl)acrylamide], no more than 1000 nM. As for `NC(=O)/C=C/c1c[nH]c2ncc(C=O)cc12` [Example 356, (E)-3-(5-formyl-1H-pyrrolo[2,3-b]pyridin-3-yl)acrylamide], the IC50 is no more than 1000 nM. Turning to `CN1CCC(C(=O)c2ccc(-c3cnc4[nH]cc(/C=C/C(N)=O)c4n3)cc2)CC1` [Example 333, (E)-3-(2-(4-(1-methylpiperidine-4-carbonyl)phenyl)-5H-pyrrolo[2,3-b]pyrazin-7-yl)acrylamide], the IC50 is no more than 1000 nM. In the case of `CC(=O)c1ccc(-c2cc3c(/C=C/C(N)=O)c[nH]c3nc2C)cc1` [Example 331, (E)-3-(5-(4-acetylphenyl)-6-methyl-1H-pyrrolo[2,3-b]pyridin-3-yl)acrylamide], the IC50 was no more than 1000 nM.
